Assays:
Acinetobacter baumannii = assay: Inhibition of Acinetobacter baumannii AB1053 OXA-72 assessed as minimum concentration of compound needed to reduce the MIC of meropenem to 8 ug/ml
Klebsiella pneumoniae [1] = assay: Inhibition of Klebsiella pneumoniae KP1160 IMP-26 assessed as minimum concentration of compound needed to reduce the MIC of meropenem to 1 ug/ml
Escherichia coli [2] = assay: Inhibition of Escherichia coli EC302 TEM-10 assessed as minimum concentration of compound needed to reduce the MIC of aztreonam to 4 ug/ml
Escherichia coli [3] = assay: Inhibition of Escherichia coli ECM6619 TEM-10 assessed as minimum concentration of compound needed to reduce the MIC of aztreonam to 4 ug/ml
[4] = molecular target: Beta-lactamase (Klebsiella pneumoniae) (UniProt Q93LQ9); assay: Inhibition of Klebsiella pneumoniae KP1004 KPC-2 assessed as minimum concentration of compound needed to reduce the MIC of aztreonam to 4 ug/ml
Enterobacter cloacae = assay: Inhibition of Enterobacter cloacae ECL1002 AmpC assessed as minimum concentration of compound needed to reduce the MIC of aztreonam to 4 ug/ml
Escherichia coli [5] = assay: Inhibition of Escherichia coli KP308 SHV-5 assessed as minimum concentration of compound required to reduce the MIC of aztreonam to 4 ug/ml
Klebsiella pneumoniae [6] = assay: Inhibition of Klebsiella pneumoniae KP1054 VIM-1 assessed as minimum concentration of compound required to reduce the MIC of biapenem to 1 ug/ml
[7] = molecular target: Beta-lactamase OXA-23 (Acinetobacter baumannii) (UniProt Q9L4P2); assay: Inhibition of Acinetobacter baumannii AB1054 OXA-23 assessed as minimum concentration of compound needed to reduce the MIC of meropenem to 8 ug/ml
Pseudomonas aeruginosa = assay: Inhibition of Pseudomonas aeruginosa PAM 2035 AmpC assessed as minimum concentration of compound needed to reduce the MIC of aztreonam to 4 ug/ml
Escherichia coli [8] = assay: Inhibition of Escherichia coli ECM6625 SHV-5 assessed as minimum concentration of compound needed to reduce the MIC of aztreonam to 4 ug/ml
Klebsiella pneumoniae [9] = assay: Inhibition of Klebsiella pneumoniae KP1081 NDM-1 assessed as minimum concentration of compound required to reduce the MIC of biapenem to 1 ug/ml
Klebsiella pneumoniae [10] = assay: Inhibition of Klebsiella pneumoniae KP1009 CTX-M-15 assessed as minimum concentration of compound required to reduce the MIC of aztreonam to 4 ug/ml

Chain of Beta-lactamase OXA-23 (Acinetobacter baumannii) (Q9L4P2 whole entry): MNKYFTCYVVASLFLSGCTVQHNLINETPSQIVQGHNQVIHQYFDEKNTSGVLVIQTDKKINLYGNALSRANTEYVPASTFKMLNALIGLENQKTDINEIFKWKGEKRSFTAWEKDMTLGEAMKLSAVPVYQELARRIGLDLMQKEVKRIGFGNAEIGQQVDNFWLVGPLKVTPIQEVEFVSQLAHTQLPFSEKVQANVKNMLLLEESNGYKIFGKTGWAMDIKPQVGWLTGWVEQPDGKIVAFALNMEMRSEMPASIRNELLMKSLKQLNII
Chain of Beta-lactamase (Klebsiella pneumoniae) (Q93LQ9 as listed by the source): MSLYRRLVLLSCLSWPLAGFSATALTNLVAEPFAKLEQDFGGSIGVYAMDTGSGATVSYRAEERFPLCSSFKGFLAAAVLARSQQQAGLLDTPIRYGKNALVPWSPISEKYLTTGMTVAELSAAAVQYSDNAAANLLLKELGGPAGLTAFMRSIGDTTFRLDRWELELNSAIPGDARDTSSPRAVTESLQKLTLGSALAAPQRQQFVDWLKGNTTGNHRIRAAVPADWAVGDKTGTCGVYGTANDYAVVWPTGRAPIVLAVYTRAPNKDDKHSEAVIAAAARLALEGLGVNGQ

MEC (Acinetobacter baumannii) | MEC (Klebsiella pneumoniae [1]) | MEC (Escherichia coli [2]) | MEC (Escherichia coli [3]) | MEC [4] | MEC (Enterobacter cloacae) | MEC (Escherichia coli [5]) | MEC (Klebsiella pneumoniae [6]) | MEC [7] | MEC (Pseudomonas aeruginosa) | MEC (Escherichia coli [8]) | MEC (Klebsiella pneumoniae [9]) | MEC (Klebsiella pneumoniae [10]) | SMILES
> 20 µg/mL | > 20 µg/mL | > 20 µg/mL | > 20 µg/mL | 5 µg/mL | 10 µg/mL | > 20 µg/mL | 5 µg/mL | > 20 µg/mL | 10 µg/mL | > 20 µg/mL | 10 µg/mL | > 20 µg/mL | COc1ccc2c(c1C(=O)O)OB(O)C1(CC1)C2
> 20 µg/mL | > 20 µg/mL | > 20 µg/mL | > 20 µg/mL | 10 µg/mL | 20 µg/mL | > 20 µg/mL | > 20 µg/mL | > 20 µg/mL | > 20 µg/mL | > 20 µg/mL | > 20 µg/mL | > 20 µg/mL | COc1ccc2c(c1C(=O)O)OB(O)C(CO)C2 (stereo not drawn)
1.25 µg/mL | > 20 µg/mL | 5 µg/mL | 5 µg/mL | 1.25 µg/mL | 2.5 µg/mL | 1.25 µg/mL | 20 µg/mL | 2.5 µg/mL | 10 µg/mL | 1.25 µg/mL | 2.5 µg/mL | 2.5 µg/mL | COc1ccc2c(c1C(=O)O)OB(O)CC21CC1
2.5 µg/mL | 2.5 µg/mL | 5 µg/mL | 5 µg/mL | 1.25 µg/mL | 2.5 µg/mL | 5 µg/mL | 0.16 µg/mL | 10 µg/mL | 20 µg/mL | 5 µg/mL | 0.6 µg/mL | 10 µg/mL | COc1ccc2c(c1C(=O)O)OB(O)C1(CO)CC21 (stereo not drawn)
20 µg/mL | > 20 µg/mL | 20 µg/mL | 20 µg/mL | 2.5 µg/mL | 10 µg/mL | 20 µg/mL | > 20 µg/mL | > 20 µg/mL | 10 µg/mL | 20 µg/mL | > 20 µg/mL | 10 µg/mL | COc1ccc2c(c1C(=O)O)OB(O)C=C2

Continued, molecule first:

SMILES | MEC (Acinetobacter baumannii) | MEC (Klebsiella pneumoniae [1]) | MEC (Escherichia coli [2]) | MEC (Escherichia coli [3]) | MEC [4] | MEC (Enterobacter cloacae) | MEC (Escherichia coli [5]) | MEC (Klebsiella pneumoniae [6]) | MEC [7] | MEC (Pseudomonas aeruginosa) | MEC (Escherichia coli [8]) | MEC (Klebsiella pneumoniae [9]) | MEC (Klebsiella pneumoniae [10])
COc1ccc2c(c1C(=O)O)OB(O)C1CC21 (stereo not drawn) | 0.6 µg/mL | 5 µg/mL | 0.3 µg/mL | 0.3 µg/mL | 0.16 µg/mL | 0.3 µg/mL | 0.3 µg/mL | 0.08 µg/mL | 1.25 µg/mL | 5 µg/mL | 0.3 µg/mL | 0.6 µg/mL | 0.3 µg/mL
O=C(O)c1nccc2c1OB(O)[C@H]1C[C@@H]21 | 5 µg/mL | > 20 µg/mL | 5 µg/mL | 5 µg/mL | 1.25 µg/mL | 20 µg/mL | 10 µg/mL | 20 µg/mL | 10 µg/mL | 10 µg/mL | 10 µg/mL | 20 µg/mL | 20 µg/mL
COc1ccc2c(c1C(=O)O)OB(O)C1CCC21 (stereo not drawn) | 5 µg/mL | 20 µg/mL | 10 µg/mL | 10 µg/mL | 5 µg/mL | 10 µg/mL | 10 µg/mL | 5 µg/mL | 10 µg/mL | 10 µg/mL | 10 µg/mL | 10 µg/mL | 10 µg/mL
C[C@H]1Cc2cccc(C(=O)O)c2OB1O | > 20 µg/mL | > 20 µg/mL | > 20 µg/mL | > 20 µg/mL | 1.25 µg/mL | 20 µg/mL | 20 µg/mL | 5 µg/mL | > 20 µg/mL | 1.25 µg/mL | 20 µg/mL | 1.25 µg/mL | > 20 µg/mL
O=C(O)c1c(F)ccc2c1OB(O)[C@H]1C[C@@H]21 | 5 µg/mL | > 20 µg/mL | 1.25 µg/mL | 1.25 µg/mL | 0.3 µg/mL | 2.5 µg/mL | 1.25 µg/mL | > 20 µg/mL | 10 µg/mL | 5 µg/mL | 1.25 µg/mL | 5 µg/mL | 1.25 µg/mL
COc1ccc2c(c1C(=O)O)OB(O)C1C2C1(F)F (stereo not drawn) | 5 µg/mL | > 20 µg/mL | 5 µg/mL | 5 µg/mL | 1.25 µg/mL | 10 µg/mL | 1.25 µg/mL | 10 µg/mL | 10 µg/mL | 10 µg/mL | 1.25 µg/mL | 2.5 µg/mL | 1.25 µg/mL

Source: ChEMBL document CHEMBL4616632, “Discovery of Cyclic Boronic Acid QPX7728, an Ultrabroad-Spectrum Inhibitor of Serine and Metallo-β-lactamases” (J Med Chem, 2020)
